Read-outs that look alike come from different tables or passages of the source.
Key:
SMN2 mRNA = test: RT-qPCR splicing assay, SMN2 canonical junction (CJ) mRNA; format: cell-based, human; conditions: Homo sapiens; canonical junction qPCR panel, Table 5; read-out: SMN2 (decrease in CJ mRNA levels, IC50)
In short: (§1)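 A673 or K562 cells were treated for 24 h at 37 °C with compound in 11-point 3-fold dilution (top 10 uM final, DMSO ≤0.25%). Lysates then went to one-step RT-qPCR measuring canonical-junction mRNA, normalized to GAPDH, GUSB or PPIA.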

HTT mRNA = test: RT-qPCR splicing assay, HTT canonical junction (CJ) and alternative junction (AJ) mRNA; format: cell-based, human; conditions: Homo sapiens; for AC50: increase in HTT alternative junction (AJ) mRNA, read-out: HTT AJ AC50
In short: (§2)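 A673 cells (normalized to PPIA) or K562 cells (normalized to GAPDH or GUSB) were treated 24 h at 37 °C with an 11-point 3-fold dilution series, top 10 uM, DMSO ≤0.25%. Cell lysates went to one-step RT-qPCR measuring canonical- and alternative-junction MYB or HTT transcripts.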

[1] = system: K562 (human chronic myelogenous leukemia) cells; test: Cell Titer Glo 2.0 cell viability assay; format: cell-based; conditions: Homo sapiens, K562, 72 h, K562 cells, 72 hours, Cell Titer Glo 2.0; read-out: K562 GI50
Target C = test: RT-qPCR splicing assay panel, Target C canonical junction (CJ) mRNA; format: cell-based, human; conditions: Homo sapiens; canonical junction qPCR panel, Table 5; read-out: Target C (decrease in CJ mRNA levels, IC50)
In short: as §1

MYB mRNA = test: RT-qPCR splicing assay, MYB canonical junction (CJ) and alternative junction (AJ) mRNA; format: cell-based, human; conditions: Homo sapiens; for AC50: increase in MYB alternative junction (AJ) mRNA, read-out: MYB AJ AC50
In short: as §2

[2] = decrease in HTT canonical junction (CJ) mRNA, RT-qPCR, read-out: HTT CJ IC50
[3] = canonical junction qPCR panel, Table 5, read-out: HTT (decrease in CJ mRNA levels, IC50)
[4] = canonical junction qPCR panel, Table 5, read-out: MYB (decrease in CJ mRNA levels, IC50)
[5] = decrease in MYB canonical junction (CJ) mRNA, RT-qPCR, read-out: MYB CJ IC50

| IC50 (SMN2 mRNA) [µM] | IC50 (HTT mRNA; [2]) [µM] | IC50 (HTT mRNA; [3]) [µM] | GI50 [1] [µM] | IC50 (Target C) [µM] | IC50 (MYB mRNA; [4]) [µM] | IC50 (MYB mRNA; [5]) [µM] | SMILES | AC50 (HTT mRNA; RT-qPCR) [µM] | AC50 (MYB mRNA; RT-qPCR) [µM] |
| --- | --- | --- | --- | --- | --- | --- | --- | --- | --- |
| < 0.1 | 1 to 10 | 0.1 to 1 | < 0.1 | 1 to 10 | < 0.1 | 0.1 to 1 | Cc1c(O)c(-c2ccc3c(=O)n(C45CCC(N)(CC4)C5)ccc3n2)cc2cn(C)nc12 [Compound 1486] | 0.1 to 1 | < 0.1 |
| < 0.1 | 1 to 10 | 0.1 to 1 | 0.1 to 1 | 1 to 10 | 0.1 to 1 | 0.1 to 1 | Cc1c(O)c(-c2ncc3c(=O)n(C45CCC(N(C)C)(CC4)C5)ccc3n2)cc2cn(C)nc12 [Compound 1488] | 0.1 to 1 | 0.1 to 1 |
| < 0.1 | 1 to 10 | 1 to 10 | 0.1 to 1 | 1 to 10 | 0.1 to 1 | 0.1 to 1 | Cn1cc2cc(-c3ncc4c(=O)n(C56CCC(N)(CC5)C6)ccc4n3)cc(F)c2n1 [Compound 1489, 6-(4-aminonorbornane-1-yl)-2-(7-fluoro-2-methyl-indazol-5-yl)pyrido[4,3-d]pyrimidin-5-one] | 1 to 10 | 0.1 to 1 |
| < 0.1 | 0.1 to 1 | < 0.1 | 0.1 to 1 | 0.1 to 1 | < 0.1 | < 0.1 | Cc1cn2cc(-c3ncc4c(=O)n([C@H]5CCN[C@H](C)C5)ccc4n3)cc(F)c2n1 [Compound 1490, 2-(8-fluoro-2-methyl-imidazo[1,2-a]pyridin-6-yl)-6-[(2R,4S)-2-methyl-4-piperidyl]pyrido[4,3-d]pyrimidin-5-one] | < 0.1 | < 0.1 |
| < 0.1 | 0.1 to 1 | 0.1 to 1 | 0.1 to 1 | 0.1 to 1 | 0.1 to 1 | 0.1 to 1 | Cc1cn2cc(-c3nc(C)c4c(=O)n(C5CCNCC5)ccc4n3)cc(F)c2n1 [Compound 1491, 2-(8-fluoro-2-methyl-imidazo[1,2-a]pyridin-6-yl)-4-methyl-6-(4-piperidyl)pyrido[4,3-d]pyrimidin-5-one] | 0.1 to 1 | 0.1 to 1 |
| < 0.1 | 1 to 10 | 1 to 10 | 0.1 to 1 | 1 to 10 | 0.1 to 1 | 0.1 to 1 | Cc1cn2cc(-c3ccc4c(=O)n(C56CCC(N)(CC5)C6)ccc4n3)cc(F)c2n1 [Compound 1492] | 1 to 10 | 0.1 to 1 |
| < 0.1 | 1 to 10 | 1 to 10 | 0.1 to 1 | 1 to 10 | 0.1 to 1 | 0.1 to 1 | C[C@H]1C[C@@H](n2ccc3nc(-c4cc5cn(C)nc5cc4O)ncc3c2=O)CCN1 [Compound 1493, 2-(6-hydroxy-2-methyl-indazol-5-yl)-6-[(2S,4S)-2-methyl-4-piperidyl]pyrido[4,3-d]pyrimidin-5-one] | 1 to 10 | 0.1 to 1 |
| < 0.1 | 1 to 10 | 1 to 10 | 0.1 to 1 | 1 to 10 | 0.1 to 1 | 0.1 to 1 | Cc1cn2cc(-c3ccc4c(=O)n([C@H]5CCN[C@@H](C)C5)ccc4n3)cc(F)c2n1 [Compound 1494] | 1 to 10 | 0.1 to 1 |
| < 0.1 | 0.1 to 1 | < 0.1 | 0.1 to 1 | 0.1 to 1 | < 0.1 | < 0.1 | Cc1cn2nc(-c3ccc4c(=O)n([C@H]5CCN[C@@H](C)C5)ccc4n3)cc(C)c2n1 [Compound 1495] | < 0.1 | < 0.1 |
| < 0.1 | 1 to 10 | 0.1 to 1 | 0.1 to 1 | 1 to 10 | 0.1 to 1 | 0.1 to 1 | Cc1cn2cc(-c3ncc4c(=O)n([C@@H]5CCNC(C)(C)C5)ccc4n3)cc(F)c2n1 [Compound 1496, 6-[(4R)-2,2-dimethyl-4-piperidyl]-2-(8-fluoro-2-methyl-imidazo[1,2-a]pyridin-6-yl)pyrido[4,3-d]pyrimidin-5-one] | 0.1 to 1 | 0.1 to 1 |

Source: US20250332173A1, “COMPOUNDS AND METHODS FOR MODULATING NUCLEIC ACID SPLICING” (REMIX THERAPEUTICS INC., priority 2021, published 2025)
